Test [1] deals with T1, human recombinant H-PGDS (Homo sapiens, UniProt O60760). Description: Fluorescence intensity h-PGDS TBA enzyme assay. The settings on record: Examples up to 622 (and 3a, 3b). It counts as biochemical.
Test [2] addresses T1, human recombinant H-PGDS. Description: Slightly modified h-PGDS TBA enzyme assay (Examples 623 onwards). It counts as biochemical. As for the experimental part:
Prostaglandin D Synthase (PGDS) converts the substrate prostaglandin H2 (PGH2) to prostaglandin D2.
Examples 623 onwards were tested in a slightly modified assay: The enzyme assay (30 μls during biological process) contained 100 mM Trizma pH 8.0, 100 μM MgCl2, 0.1 mg/ml IgG Rabbit serum, 5.0 μM PGH2 (Cayman; ethanol solution, #17020), 2.5 mM L-Glutathione (Sigma; reduced form #G4251), 1:40,000 human recombinant H-PGDS (from 1 mg/ml), 0.5% DMSO and inhibitor (varying concentration). 3 μls of diluted inhibitor (dissolved in DMSO) was plated into a 384-well assay plate followed by a 24 μl addition of an enzyme solution containing h-PGDS, Trizma, MgCl2, IgG and L-Glutathione. After pre-incubation of inhibitor and enzyme solution for 10 minutes at room temperature, the reaction was initiated with a 3 μl addition of substrate solution in 10 mM HCl. The reaction was terminated after 40 second by the addition of 3 μl stop buffer containing FeCl2 and citric acid. After addition of 45 μl of TBA plates were heated for one hour in a 70° C. oven. Plates were cooled at room temperature overnight and read on a plate reader the next day with excitation @ 530 nm and emission @ 560 nm. IC50's of inhibitors were calculated with a 4-parameter fit using 11 inhibitor concentrations in duplicate with 1/2 log serial dilutions. […] The highest inhibitor concentration tested was typically 10 μM.

T1 sequence (O60760 whole entry): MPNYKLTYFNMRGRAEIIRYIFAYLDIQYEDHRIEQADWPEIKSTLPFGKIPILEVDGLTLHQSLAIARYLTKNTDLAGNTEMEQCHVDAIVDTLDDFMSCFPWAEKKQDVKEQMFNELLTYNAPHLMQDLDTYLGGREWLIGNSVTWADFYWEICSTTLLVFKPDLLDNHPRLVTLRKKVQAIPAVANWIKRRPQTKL

As for `O=C(NC1CCN(CC2CC2)CC1)c1ccc(-c2cccc(F)c2)nc1` [Example 596, N-[1-(Cyclopropylmethyl)piperidin-4-yl]-6-(3-fluorophenyl)nicotinamide], the IC50 on human recombinant H-PGDS [1] was 1.93 nM.
Same read-out and setting: the same measure for `CN1CCc2nc(N3CCC(NC(=O)c4ccc(-c5cccc(F)c5)nc4)C3)ncc2C1` (centres unmarked) [Example 597, 6-(3-Fluorophenyl)-N-[1-(6-methyl-5,6,7,8-tetrahydropyrido[4.3-d]pyrimidin-2-yl)pyrrolidin-3-yl]nicotinamide]: 0.85 nM.
On the same count and under the same terms, the same measure for `CC(C)(C)OC(=O)N1CCC(NC(=O)c2ccc(-c3cccc(F)c3)nc2)CC1` [Example 598, tert-Butyl 4-({[6-(3-fluorophenyl)pyridin-3-yl]carbonyl}amino)piperidine-1-carboxylate]: 3.79 nM.
For `CC(C)(C)OC(=O)N1CC(NC(=O)c2ccc(-c3cccc(F)c3)nc2)C1` [Example 599], the 50% inhibitory concentration (IC50) at human recombinant H-PGDS [1] was 2.92 nM.
Same read-out and setting: the same measure for `CC(C)(C)C(=O)N1CC(NC(=O)c2ccc(-c3cccc(F)c3)nc2)C1` [Example 601, N-[1-(2,2-Dimethylpropanoyl)azetidin-3-yl]-6-(3-fluorophenyl)nicotinamide]: 6.76 nM.
The same measure, in the same setting: with `Cc1cc(C)c(C#N)c(N2CC(NC(=O)c3ccc(-c4cccc(F)c4)nc3)C2)n1` [Example 602] the figure was 2.98 nM; with `CCc1cn2nc(N3CC(NC(=O)c4ccc(-c5cccc(F)c5)nc4)C3)ccc2n1` [Example 603, N-[1-(2-Ethylimidazo[1,2-b]pyridazin-6-yl)azetidin-3-yl]-6-(3-fluorophenyl)nicotinamide], 2.29 nM; with `O=C(NC1CN(c2ncccc2C(F)(F)F)C1)c1ccc(-c2cccc(F)c2)nc1` [Example 604, 6-(3-Fluorophenyl)-N-{1-[3-(trifluoromethyl)pyridin-2-yl]azetidin-3-yl}nicotinamide], 11.5 nM.
Still for that read-out and setting: with `O=C(NC1CN(c2cnc3ccccc3n2)C1)c1ccc(-c2cccc(F)c2)nc1` [Example 605, 6-(3-Fluorophenyl)-N-(1-quinoxalin-2-ylazetidin-3-yl)nicotinamide] the figure was 2.9 nM.
On to `O=C(NC1CN(c2nc3ccccc3o2)C1)c1ccc(-c2cccc(F)c2)nc1` [Example 606, N-[1-(1,3-Benzoxazol-2-yl)azetidin-3-yl]-6-(3-fluorophenyl)nicotinamide], for which the IC50 on human recombinant H-PGDS [1] stood at 10.8 nM.
Same read-out and setting: with `Cc1ccc(C#N)c(N2CC(NC(=O)c3ccc(-c4cccc(F)c4)nc3)C2)n1` [Example 607, N-[1-(3-Cyano-6-methylpyridin-2-yl)azetidin-3-yl]-6-(3-fluorophenyl)nicotinamide] the figure was 4.44 nM; with `O=C(NC1CCN(CC(F)(F)F)CC1)c1cnc(-c2cccc(F)c2)c(Cl)c1` [Example 620, 5-Chloro-6-(3-fluorophenyl)-N-[1-(2,2,2-trifluoroethyl)piperidin-4-yl]nicotinamide], 3.66 nM.
The same measure, in the same setting: the same measure for `O=C(NC1CCN(c2cccnn2)CC1)c1cnc(-c2cccc(F)c2)c(Cl)c1` [Example 621, 5-Chloro-6-(3-fluorophenyl)-N-(1-pyridazin-3-ylpiperidin-4-yl)nicotinamide]: 1.59 nM; for `CC(C)(C)C(=O)N1CCC(NC(=O)c2cnc(-c3cccc(F)c3)c(Cl)c2)CC1` [Example 622, 5-Chloro-6-(3-fluorophenyl)-N-(1-pivaloylpiperidin-4-yl)nicotinamide]: 3.48 nM.
Consider `N#Cc1cccc(-c2ccc(C(=O)NC3CCN(CC(F)(F)F)CC3)cn2)c1` [Example 623, 6-(3-Cyanophenyl)-N-[1-(2,2,2-trifluoroethyl)piperidin-4-yl]nicotinamide], for which, on human recombinant H-PGDS [2], the IC50 is 104 nM.
Consider `N#Cc1ccccc1-c1ccc(C(=O)NC2CCN(CC(F)(F)F)CC2)cn1` [Example 624, 6-(2-Cyanophenyl)-N-[1-(2,2,2-trifluoroethyl)piperidin-4-yl]nicotinamide], for which the half-maximal inhibitory concentration (IC50) at human recombinant H-PGDS [2] is 36 nM.
Same read-out and setting: with `O=C(NC1CCN(c2ncccn2)CC1)c1ccc(-c2ccccc2O)nc1` [Example 625, 6-(2-Hydroxyphenyl)-N-(1-pyrimidin-2-ylpiperidin-4-yl)nicotinamide] the figure was 4.06 nM.
For `CC(C)(C)C(=O)N1CCC(NC(=O)c2ccc(-c3ccccc3O)nc2)CC1` [Example 627], the IC50 on human recombinant H-PGDS [2] came out at 6.75 nM.
Still for that read-out and setting: with `CCOC(=O)N1CCC(NC(=O)c2ccc(-c3ccccc3O)nc2)CC1` [Example 628] the figure was 6.22 nM; with `O=C(NC1CCN(CC2CC2)CC1)c1ccc(-c2ccccc2O)nc1` [Example 629], 22.2 nM.
On the same count and under the same terms, the same measure for `COCCN1CCC(NC(=O)c2ccc(-c3ccccc3O)nc2)CC1` [Example 630]: 32.8 nM.
On the same count and under the same terms, the same measure for `CCCN1CCC(NC(=O)c2ccc(-c3ccccc3O)nc2)CC1` [Example 631]: 82.4 nM; for `O=C(NC1CCN(c2cccnn2)CC1)c1ccc(-c2ccccc2O)nc1` [Example 632]: 5.57 nM.
`CC(C)S(=O)(=O)N1CCC(NC(=O)c2ccc(-c3ccccc3O)nc2)CC1` [Example 633]: the IC50 at human recombinant H-PGDS [2] is 16.6 nM.
Still for that read-out and setting: the same measure for `Cn1nnnc1N1CCC(NC(=O)c2ccc(-c3ccccc3O)nc2)CC1` [Example 634]: 6.13 nM; for `O=C(NC1CCN(CC(F)(F)F)CC1)c1ccc(-c2cc(F)ccc2O)nc1` [Example 635]: 10.9 nM; for `CC(C)(C)C(=O)N1CCC(NC(=O)c2ccc(-c3cc(F)ccc3O)nc2)CC1` [Example 636]: 17.2 nM.
On to `COCCN1CCC(NC(=O)c2ccc(-c3cc(F)ccc3O)nc2)CC1` [Example 637], for which the IC50 at human recombinant H-PGDS [2] is 62.4 nM.
Same read-out and setting: with `CCCN1CCC(NC(=O)c2ccc(-c3cc(F)ccc3O)nc2)CC1` [Example 638] the figure was 83.3 nM.
On the same count and under the same terms, with `O=C(NC1CCN(c2cccnn2)CC1)c1ccc(-c2cc(F)ccc2O)nc1` [Example 639] the figure was 10000 nM.
Still for that read-out and setting: with `CCN1CCC(NC(=O)c2ccc(-c3cc(F)ccc3O)nc2)CC1` [Example 640] the figure was 129 nM; with `CC(C)S(=O)(=O)N1CCC(NC(=O)c2ccc(-c3cc(F)ccc3O)nc2)CC1` [Example 642], 13.9 nM.
As for `Cn1nnnc1N1CCC(NC(=O)c2ccc(-c3cc(F)ccc3O)nc2)CC1` [Example 643], at human recombinant H-PGDS [2], the IC50 came out at 7.77 nM.
Same read-out and setting: the same measure for `O=C1CC(NC(=O)c2ccc(-c3cccc(F)c3)nc2)c2ccccc2N1` (centres unmarked) [Example 650, 6-(3-Fluorophenyl)-N-(2-oxo-1,2,3,4-tetrahydroquinolin-4-yl)nicotinamide]: 0.568 nM; for `O=C(N[C@H]1[C@@H]2CN(CC(F)(F)F)C[C@@H]21)c1ccc(-c2cccc(F)c2)nc1` [Example 651, 6-(3-Fluorophenyl)-N-((1R,5S,6S)-3-(2,2,2-trifluoroethyl)-3-aza-bicyclo[3.1.0]hexan-6-yl)nicotinamide]: 2.01 nM.
On to “N-(1-{[4-(3,4)-1,3-Thiazol-2-yl]methyl}piperidin-4-yl)- 6-(3-fluorophenyl)nicotinamide [Example 413]”, for which the IC50 at human recombinant H-PGDS [1] came to 1000 nM.
Still for that read-out and setting: with “N-[1-(2-Chloro-2-fluoro-5-methoxybenzyl)piperidin-4- yl]-6-(3-fluorophenyl)nicotinamide [Example 468]” the figure was 0.375 nM; with “N-{1-[1-(2-Ethoxyphenyl)-1H-tetrazol-5- yl]piperidin-4-yl}-6-(3-fluorophenyl)nicotinamide [Example 105]”, 0.655 nM.

Broadly, the IC50 is the concentration that inhibits the measured activity by half.

Values taken from patent US7902373B2 (Pfizer Inc, priority 2006, dated 2011).
